Data as given in publication PMC6277767, “Broad and Region-Specific Impacts of the Synthetic Cannabinoid CP 55,940 in Adolescent and Adult Female Mouse Brains” (Frontiers in Molecular Neuroscience, 2018).

Test system: CD1 female mouse brain lipidome
Experiment: Brain-region lipid levels (HPLC/MS/MS lipidomics) 2 h after single i.p. 3 mg/kg CP 55,940 vs vehicle
Type: in vivo
Set-up: N-arachidonoyl phenylalanine level, Mean / N-stearoyl tryptophan level, Mean / N-stearoyl proline level, Mean / N-stearoyl leucine level, Mean / N-stearoyl phenylalanine level, Mean / N-stearoyl serine level, Mean / N-stearoyl methionine level, Mean: unit: moles per gram
Settings: hypothalamus
Method: The Bloomington Institutional Animal Care and Use Committee of Indiana University reviewed and approved the animal procedures. Female mice from the CD1 strain were utilized to match our study examining THC’s effects on the brain lipidome ([Leishman et al., 2018]). Mice were given a single i.p. injection of either 3 mg/kg CP or 1:1:18 cremophor:ethanol:saline vehicle (please refer to the section “3 mg/kg CP Is Relevant for Synthetic Cannabinoid Abuse and Has Stronger Effects on the Female Mouse Brain Lipidome During Adolescence” for a justification of dose and use of female mice). Three different age groups were given injections: PND 35 and PND 50 adolescents, and adult mice (PND 113). At least eight mice in each age group received CP and at least eight received vehicle. Matching the THC study time course ([Leishman et al., 2018]), mice were sacrificed via rapid decapitation 2 h after injection. Brains were immediately removed and flash-frozen in liquid nitrogen, and then stored at -80°C until dissections were performed. Brains were dissected on an ice-cold dissection plate into the following regions: STR, HIPP, CER, THAL, CTX, HYP, MID, and STEM. These abbreviations for these brain areas will be used exclusively when discussing the results generated by these specific dissections. Each dissected area was immediately placed in liquid nitrogen and then stored at -80°C until used for lipid extraction.
Tissue extracts were performed as previously described ([Bradshaw et al., 2006]; [Stuart et al., 2013]; [Raboune et al., 2014]; [Leishman et al., 2016a],[b], [2017], [2018]). First, samples were shock frozen in liquid nitrogen, weighed, and transferred to a centrifuge tube. The mass of the largest sample was multiplied by 50 to determine how many milliliters of HPLC-grade methanol (Fisher, Fair Lawn, NJ, United States) to add. Then, samples were spiked with 500 pmol deuterium-labeled NAGly (d8NAGly; Cayman Chemical, Ann Arbor, MI, United States). Samples were placed on ice in darkness for 2 h then individually homogenized and centrifuged at 19,000 × g for 20 min at 20°C. Supernatants were diluted with HPLC water (purified in house) to make a solution of 75% water, 25% supernatant. Lipids were partially purified on C18 solid phase extraction columns (Agilent, Palo Alto, CA, United States). A series of four elutions with 1.5 mL of 60%, 75%, 85%, and 100% methanol were collected ([Stuart et al., 2013]; [Leishman et al., 2016a],[b], [2018]).
As previously described ([Bradshaw et al., 2006]; [Tan et al., 2006]; [Smoum et al., 2010]; [Stuart et al., 2013]; [Tortoriello et al., 2013]; [Raboune et al., 2014]; [Leishman et al., 2016a],[b], [2017], [2018]), samples were analyzed using an Applied Biosystems API 3000 triple quadrupole mass spectrometer with electrospray ionization (Foster City, CA, United States). Using an Agilent XDB-C18 reversed phase analytical column and optimized mobile phase gradients, 20 μL from each elution were chromatographed. Two Shimadzu 10ADvp pumps (Columbia, MD, United States) provided the pressure for gradient elution. Mobile phase A: 20% methanol, 80% water (v/v) and 1 mM ammonium acetate (Sigma, St. Louis, MO, United States). Mobile phase B: 100% methanol, 1 mM ammonium acetate. Every method run began with 0% mobile phase B, reached 100% mobile phase B flowing at 0.2 mL/min, and gradually returned to 0% mobile phase B.
This screening library will be referred to as the lipidome when discussing data from this study. HPLC/MS/MS data were analyzed using Analyst software (Applied Biosystems) ([Bradshaw et al., 2006]; [Tan et al., 2006]; [Stuart et al., 2013]; [Tortoriello et al., 2013]; [Raboune et al., 2014]; [Leishman et al., 2016a],[b], [2017], [2018]). Chromatograms (Supplementary Figure 3) were generated by determining the retention time of analytes from the analytical column with a [M-1] or [M+1] parent peak and a fragmentation peak corresponding to the programmed values. […]

[1] = PND 50 female mice, 3mg/kg CP 55,940
[2] = PND 35 adolescent female mice, 3 mg/kg

Question: What does the source list for `CCCCCCC(C)(C)c1ccc([C@@H]2C[C@H](O)CC[C@H]2CCCO)c(O)c1` [CP 55,940]?
Answer: N-docosahexaenoyl methionine level, Mean [1]: BDL; N-docosahexaenoyl phenylalanine level, Mean [1]: PISSR; N-docosahexaenoyl proline level, Mean [1]: BDL; N-docosahexaenoyl serine level, Mean [1]: PISSR; N-docosahexaenoyl tryptophan level, Mean [1]: BDL; N-docosahexaenoyl tyrosine level, Mean [1]: BDL; N-docosahexaenoyl valine level, Mean [1]: BDL; N-linoleoyl GABA level, Mean [1]: PISSR; N-linoleoyl alanine level, Mean [1]: 3.81E-13; N-linoleoyl ethanolamine level, Mean [1]: 3.47E-11; N-linoleoyl glycine level, Mean [1]: 1.12E-13; N-linoleoyl leucine level, Mean [1]: PISSR; N-linoleoyl methionine level, Mean [1]: BDL; N-linoleoyl phenylalanine level, Mean [1]: PISSR; N-linoleoyl proline level, Mean [1]: BDL; N-linoleoyl serine level, Mean [1]: 1.7E-10; N-linoleoyl tryptophan level, Mean [1]: BDL; N-linoleoyl tyrosine level, Mean [1]: BDL; N-linoleoyl valine level, Mean [1]: BDL; N-nervonoyl valine level, Mean [1]: BDL; N-oleoyl GABA level, Mean [1]: 1.97E-12; N-oleoyl alanine level, Mean [1]: 2.61E-12; N-oleoyl dopamine level, Mean [1]: BDL; N-oleoyl ethanolamine level, Mean [1]: 8.36E-11; N-oleoyl glycine level, Mean [1]: 5.38E-13; N-oleoyl leucine level, Mean [1]: 3.54E-13; N-oleoyl methionine level, Mean [1]: PISSR; N-oleoyl phenylalanine level, Mean [1]: 6.88E-13; N-oleoyl proline level, Mean [1]: BDL; N-oleoyl serine level, Mean [1]: 3.07E-10; N-oleoyl tryptophan level, Mean [1]: BDL; N-oleoyl tyrosine level, Mean [1]: 1.89E-13; N-oleoyl valine level, Mean [1]: PISSR; N-palmitoyl GABA level, Mean [1]: 6.6E-12; N-palmitoyl alanine level, Mean [1]: 6.9E-12; N-palmitoyl ethanolamine level, Mean [1]: 6.24E-11; N-palmitoyl glycine level, Mean [1]: 3.58E-12; N-palmitoyl leucine level, Mean [1]: 1.26E-12; N-palmitoyl methionine level, Mean [1]: 9.4E-13; N-palmitoyl phenylalanine level, Mean [1]: 1.3E-12; N-palmitoyl proline level, Mean [1]: BDL; N-palmitoyl serine level, Mean [1]: 3.09E-11; N-palmitoyl tryptophan level, Mean [1]: BDL; N-palmitoyl tyrosine level, Mean [1]: 4.12E-13; N-palmitoyl valine level, Mean [1]: 2.32E-13; N-stearoyl GABA level, Mean [1]: 7.69E-12; N-stearoyl alanine level, Mean [1]: 9.94E-13; N-stearoyl ethanolamine level, Mean [1]: 3.67E-11; N-stearoyl glycine level, Mean [1]: 5.58E-13; N-stearoyl leucine level, Mean [1]: 9.96E-13; N-stearoyl methionine level, Mean [1]: 5.57E-13; N-stearoyl phenylalanine level, Mean [1]: 1.28E-12; N-stearoyl proline level, Mean [1]: BDL; N-stearoyl serine level, Mean [1]: 5.5E-11; N-stearoyl tryptophan level, Mean [1]: BDL; N-stearoyl tyrosine level, Mean [1]: 1.01E-13; Oleic acid level, Mean [1]: 2.82E-10; PGE2 level, Mean [1]: 7.14E-11; PhosphoLEA level, Mean [1]: 1.12E-11; THC level, Mean [1]: BDL; 2-arachidonoyl glycerol level, Mean [2]: 6.64E-10; 2-linoleoyl glycerol level, Mean [2]: 5.43E-11; 2-oleoyl glycerol level, Mean [2]: 7.45E-10; 2-palmitoyl glycerol level, Mean [2]: 7.93E-10; 6-ketoPGF1α level, Mean [2]: 1.71E-11; Arachidonic acid level, Mean [2]: 3.33E-09; Linoleic acid level, Mean [2]: 2.5E-10; N- stearoyl valine level, Mean [2]: 1.41E-12; N-arachidonoyl GABA level, Mean [2]: 3.93E-11; N-arachidonoyl alanine level, Mean [2]: 5.15E-12; N-arachidonoyl ethanolamine level, Mean [2]: 5.6E-12; N-arachidonoyl glycine level, Mean [2]: 5.39E-12; N-arachidonoyl phenylalanine level, Mean [2]: 7.34E-13; N-arachidonoyl taurine level, Mean [2]: 1.56E-11; N-docosahexaenoyl GABA level, Mean [2]: 5.25E-12; N-docosahexaenoyl ethanolamine level, Mean [2]: 1.68E-11; N-docosahexaenoyl glycine level, Mean [2]: 4.59E-13; N-linoleoyl alanine level, Mean [2]: 4.26E-12; N-linoleoyl ethanolamine level, Mean [2]: 1.7E-11; N-linoleoyl glycine level, Mean [2]: 3.45E-13; N-linoleoyl serine level, Mean [2]: 6.26E-11; N-oleoyl GABA level, Mean [2]: 2.02E-11; N-oleoyl alanine level, Mean [2]: 1.14E-11; N-oleoyl ethanolamine level, Mean [2]: 1.79E-10; N-oleoyl glycine level, Mean [2]: 3.5E-12; N-oleoyl leucine level, Mean [2]: 3.49E-13; N-oleoyl phenylalanine level, Mean [2]: 1.8E-12; N-oleoyl serine level, Mean [2]: 2.72E-10; N-oleoyl valine level, Mean [2]: 3.31E-13; N-palmitoyl GABA level, Mean [2]: 3.44E-11; N-palmitoyl alanine level, Mean [2]: 3.03E-11; N-palmitoyl ethanolamine level, Mean [2]: 4.49E-11; N-palmitoyl glycine level, Mean [2]: 1.16E-11; N-palmitoyl leucine level, Mean [2]: 2.12E-12; N-palmitoyl methionine level, Mean [2]: 5.5E-12; N-palmitoyl phenylalanine level, Mean [2]: 4.4E-12; N-palmitoyl serine level, Mean [2]: 1.07E-11; N-palmitoyl tyrosine level, Mean [2]: 1.52E-12; N-palmitoyl valine level, Mean [2]: 1.65E-12; N-stearoyl GABA level, Mean [2]: 3.84E-11; N-stearoyl alanine level, Mean [2]: 1.89E-11; N-stearoyl ethanolamine level, Mean [2]: 3.64E-11; N-stearoyl glycine level, Mean [2]: 8.37E-12
